This note sets out measurements from patent publication US20250057097A1, “PHOSPHODIESTERASES INHIBITORS TO PROMOTE IN VITRO PLANT CELL REPROGRAMMING TOWARDS PLANT EMBRYOGENESIS OR MICROCALLUS FORMATION” (CONSEJO SUPERIOR DE INVESTIGACIONES CIENTÍFICAS (CSIC), priority 2021, published 2025).

Assay [1] relates to Arabidopsis mesophyll protoplasts. In words: Microcallus formation (proliferation efficiency) in immobilized mesophyll protoplasts. The format is cell-based, Arabidopsis thaliana. Conditions: 48 h pulse treatment. The method, then:
Seeds of an Arabidopsis thaliana line overexpressing histone 2B fused with yellow fluorescent protein (H2B-YFP) were surface-sterilized and sown on MS agar. After 24 h stratification, plates were cultured vertically for 7 days under long day conditions (16 h light-8 h dark) at 22° C. Prior to seedling harvest, plates were kept vertically in the dark at 4° C. for 24 h. Protoplasts were isolated from hypocotyl and cotyledons including primary leaves according to Dovzhenko et al., Protoplasma, 222(1-2):107-11 (2003).
Protoplast density was determined by cell counting in a Fuchs-Rosenthal chamber. For immobilization, protoplasts were mixed with equal volumes of 1.2% (w/v) low melting agarose in protoplast buffer, prewarmed at 40° C. and immediately pipetted into a 96-well plate (Ibidi, Germany), prewarmed at 34° C. with 125 μL per well. The plate was immediately centrifuged (2 min, 30 g) and incubated at 4° C. for 5 min, 200 μL of cultivation medium was added on top of each well and the protoplasts were cultivated at 22° C. in the dark. Cultivation medium was composed of macro and micro elements based on Kao K N and Michayluk M R. Planta., 126(2):105-10 (1975), supplemented with 2 μM of 2,4-D and 1 μM of thidiazurone. For PDE inhibitors treatments, PDE inhibitors were dissolved in DMSO and added to the medium with the concentration given (liquid media). […]
An automated microscope (MORE1, Till I.D. GmbH, Munich, Germany) was used for the analysis of protoplast development and for the detection of YFP fluorescence. Transillumination was recorded with 10×0.45 and 20×0.8 objectives (Zeiss); epifluorescence was recorded after excitation with single-mode diode lasers (iBeam smart, Toptica) with excitation of 550 nm (YFP)/green emission filter. […]
Images were recorded immediately after immobilization and 10 days after immobilization (DAIs). […] Quantification of proliferating cells was performed by exploiting shape differences of dividing or closely adjacent nuclei after the application of EDM binary operations on epifluorescence images in comparison with circular fluorescence signals from non-dividing mononucleic cells (Brocher Int. J. Image Process, 8, 30-48 (2014)). Corresponding cellular shape parameters from proliferating microcalli were determined from selecting segmented transillumination images after filtering with processed epiflourescence images using the BioVoxxel binary feature extraction function.
PDE inhibitors were tested for their capability to increase the proliferation rate of Arabidopsis protoplasts isolated from leaves. […] Microscopic images were recorded 10 days after immobilization and proliferating microcalli were identified by the presence of multiple fluorescing nuclei visualized by exploiting the nuclear-encoded H2B-YFP marker (see FIG. 3). […]

Assay [2] concerns Brassica napus microspore cotyledonary embryos. In words: Germination capacity of embryos produced in treated microspore cultures. The format is cell-based. The following applies: cotyledonary embryos from 30-40 days cultures, desiccated and cultured under germination conditions. The method, then: To evaluate the quality of embryos produced in microspore embryogenesis cultures in the presence of the inhibitors, embryo germination assays were performed. Brassica napus microspore cotyledonary embryos originated from control and treated-cultures were used for in vitro embryo germination and conversion to plantlets as previously described (Prem et al., 2012 BMC Plant Biology 12, 127). The 34-40 old dicotyledonous embryos, after air desiccation on sterile filter paper were germinated in MS (Murashige and Skoog) medium containing sucrose 2% (w/v) and gelled with 7 g/L bacteriological agar (w/v). Microspore derived-embryos were incubated for 15-20 days at 18° C. in darkness conditions till activation of radicle and plumule, and quantified in terms of percentage of embryos showing normal growth, similar to zygotic embryo germination.

Each structure is given as a SMILES string.

As for `COc1ccc(-c2nc(-c3ccccc3Br)[nH]c2-c2ccc(OC)cc2)cc1` [AGF4.17, 2-(2-Bromophenyl)-4,5-bis(4-methoxyphenyl)-1H-imidazole], the “induction of microcallus formation compared with the untreated control” value in assay [1] (10 μM) amounted to 250%. Moreover, the “germination capacity / quality of embryos” value in assay [2] was “well-developed roots and hypocotyls in most embryos”. On to `O=C(Nc1c(Cl)cncc1Cl)c1ccc(OC(F)F)c(OCC2CC2)c1` [FDA4.21, 3-(cyclopropylmethoxy)-N-(3,5-dichloropyridin-4-yl)-4-(difluoromethoxy) benzamide, reference compound], for which, in assay [2], the “germination capacity / quality of embryos” value was “well-developed roots and hypocotyls in most embryos”. In the case of `COc1ccc(C2CNC(=O)C2)cc1OC1CCCC1` (stereo not drawn) [FDA4.22, 4-(3-cyclopentyloxy-4-methoxyphenyl)pyrrolidin-2-one, reference compound], in assay [2], the “germination capacity / quality of embryos” value is “well-developed roots and hypocotyls in most embryos”. For `Cc1oc(-c2ccccc2F)nc1CN1CCC[C@@H](C(=O)NCc2cccc(Cl)c2)C1` [JHD1.48, (R)—N-(3-chlorobenzyl)-1-((2-(2-fluorophenyl)-5-methyloxazol-4-yl)methyl) piperidin-3-carboxamide], in assay [1] (10 μM), the “microcalli formation rate increased by, relative to the untreated control” value came to 50%. Besides, the “germination capacity / quality of embryos” value in assay [2] is “well-developed roots and hypocotyls in most embryos”. On to `CSc1nc2ccccc2c(=O)n1-c1c(F)cccc1F` [TC2.43, 3-(2,6-Difluorophenyl)-2-methylthio-4-oxo-3,4-dihydroquinazoline], for which, in assay [1] (1 μM), the “increased rate of microcalli formation relative to the untreated control” value is reported as 140%. Also, in assay [1] (10 μM), the “microcalli formation rate increased by, relative to the untreated control” value is 200%. For the same molecule, the “germination capacity / quality of embryos” value in assay [2] was “well-developed roots and hypocotyls in most embryos”.
